pEC50: −log10 of the molar value. Where a name gives a salt, the structure may show the parent alone.

In this assay the test system is HBV. Conditions: Hepatitis B virus, HePAD38, 144 h, read-out: Cell Activity (EC50).

Broadly, the pEC50 is the EC50 on a negative log10 scale, so that one unit is a factor of ten. Consider `CC1(CNc2cc3n(n2)CCN(C(=O)c2cc4ccccc4[nH]2)C3)CCOC1` (stereo not shown) [Example 75, 5-(1H-indole-2-carbonyl)-N-[(3-methyloxolan-3-yl)methyl]-4H,5H,6H,7H-pyrazolo[1,5-a]pyrazin-2-amine], for which the pEC50 is greater than 6.00.

In the case of `O=C(c1cc2ccccc2[nH]1)N1CCn2nc(N[C@H]3C[C@H](O)C3)cc2C1` [Example 76, (1r,3r)-3-{[5-(1H-indole-2-carbonyl)-4H,5H,6H,7H-pyrazolo[1,5-a]pyrazin-2-yl]amino}cyclobutan-1-ol], the pEC50 is greater than 6.00. To `O=C(c1cc2ccccc2[nH]1)N1CCn2nc(N[C@H]3CCC[C@@H](O)C3)cc2C1` [Example 77, (1R,3S)-3-{[5-(1H-indole-2-carbonyl)-4H,5H,6H,7H-pyrazolo[1,5-a]pyrazin-2-yl]amino}cyclohexan-1-ol] belongs greater than 6.00; to `CC(C)OC1(CNc2cc3n(n2)CCN(C(=O)c2cc4ccccc4[nH]2)C3)CCC1` [Example 78, 5-(1H-indole-2-carbonyl)-N-{[1-(propan-2-yloxy)cyclobutyl]methyl}-4H,5H,6H,7H-pyrazolo[1,5-a]pyrazin-2-amine], greater than 6.00; to `O=C(c1cc2ccccc2[nH]1)N1CCn2nc(NCC3(CO)CCC3)cc2C1` [Example 79, [1-({[5-(1H-indole-2-carbonyl)-4H,5H,6H,7H-pyrazolo[1,5-a]pyrazin-2-yl]amino}methyl)cyclobutyl]methanol], greater than 6.00. Next, `COC1CCC(Nc2cc3n(n2)CCN(C(=O)c2cc4ccccc4[nH]2)C3)CC1` (stereo not shown) [Example 80, 5-(1H-indole-2-carbonyl)-N-(4-methoxycyclohexyl)-4H,5H,6H,7H-pyrazolo[1,5-a]pyrazin-2-amine]: greater than 6.00; `CN1CCC(C(=O)Nc2cc3n(n2)CCN(C(=O)c2cc4ccccc4[nH]2)C3)CC1C(F)(F)F` (stereo not shown) [Example 81, N-[5-(1H-indole-2-carbonyl)-4H,5H,6H,7H-pyrazolo[1,5-a]pyrazin-2-yl]-1-methyl-2-(trifluoromethyl)piperidine-4-carboxamide]: greater than 6.00; `O=C(c1cc2ccccc2[nH]1)N1CCn2nc(NCC3(O)CC(F)(F)C3)cc2C1` [Example 83, 3,3-difluoro-1-({[5-(1H-indole-2-carbonyl)-4H,5H,6H,7H-pyrazolo[1,5-a]pyrazin-2-yl]amino}methyl)cyclobutan-1-ol]: greater than 6.00. To `O=C(c1cc2ccccc2[nH]1)N1CCn2nc(NC3(c4ccccc4)CC3)cc2C1` [Example 84, 5-(1H-indole-2-carbonyl)-N-(1-phenylcyclopropyl)-4H,5H,6H,7H-pyrazolo[1,5-a]pyrazin-2-amine] belongs greater than 6.00. For the molecule `O=C(Nc1cc2n(n1)CCN(C(=O)c1cc3ccccc3[nH]1)C2)C1CCNCC1F` (stereo not shown) [Example 85, 3-fluoro-N-[5-(1H-indole-2-carbonyl)-4H,5H,6H,7H-pyrazolo[1,5-a]pyrazin-2-yl]piperidine-4-carboxamide Trihydrochloride], the pEC50 is greater than 6.00. Next, `CN1CCC(C(=O)Nc2cc3n(n2)CCN(C(=O)c2cc4ccccc4[nH]2)C3)C(F)(F)C1` (stereo not shown) [Example 87, 3,3-difluoro-N-[5-(1H-indole-2-carbonyl)-4H,5H,6H,7H-pyrazolo[1,5-a]pyrazin-2-yl]-1-methylpiperidine-4-carboxamide]: greater than 6.00; `CN1CCC(C(=O)Nc2cc3n(n2)CCN(C(=O)c2cc4ccccc4[nH]2)C3)C(F)C1` (stereo not shown) [Example 88, 3-fluoro-N-[5-(1H-indole-2-carbonyl)-4H,5H,6H,7H-pyrazolo[1,5-a]pyrazin-2-yl]-1-methylpiperidine-4-carboxamide]: greater than 6.00. Next, `CN1CC[C@H](C(=O)Nc2cc3n(n2)CCN(C(=O)c2cc4ccccc4[nH]2)C3)[C@@H](F)C1` [Example 89, (3R,4R)-3-fluoro-N-[5-(1H-indole-2-carbonyl)-4H,5H,6H,7H-pyrazolo[1,5-a]pyrazin-2-yl]-1-methylpiperidine-4-carboxamide]: greater than 6.00.

Source of the values: patent US20220081444A1, “6,7-DIHYDRO-4H-PYRAZOLO[1,5-A]PYRAZINE INDOLE-2-CARBOXAMIDES ACTIVE AGAINST THE HEPATITIS B VIRUS (HBV)” (AiCuris GmbH & Co. KG, priority 2018, published 2022).
